In patent publication US11021511B2, “Cyclic dinucleotides as sting agonists” (Janssen Biotech, Inc., priority 2017, dated 2021):

Columns and labels:
THP1-Blue ISG cells = assay: Human interferon-β induction assay; format: cell-based; conditions: total cumulative IFN-β induction over the dose range tested (0.78 to 50 μM) in THP-1 Blue cells
Protocol: THP1-Blue ISG cells are used to measure the secretion of IFN-β into the culture supernatant following STING pathway activation. To run the assay, anti-IFN-β capture antibodies were coated on 96 well MultiArray plates (Mesoscale Discovery). After a one hour incubation, plates were washed and 50 μL supernatant from the STING human cell reporter assay plates or IFN-β standards were mixed with 20 μL Sulfotag-conjugated detection antibody in the coated plates. Plates were incubated, shaking for 2 h, washed, and read buffer was applied. Electrochemiluminescence was measured on the SectorImager.

primary human PBMC = assay: PBMC activation, CD54 upregulation on monocytes by flow cytometry; format: cell-based; conditions: 20 μM, 48 h, relative to resting cells
Protocol: Concurrently, PBMC were isolated as described previously. To stimulate the PBMC, 10,000,000 cells were dispensed into 400 μL/well of flat-bottom, tissue culture treated, 24-well plates. Test compounds were added in a volume of 100 μL, then the cultures were incubated for 48 h at 37° C., 5% CO2. Supernatants were harvested. Cells were measured for activation marker upregulation using flow cytometery. Briefly, cells were stained with fluorescently labeled antibodies directed to CD56, CD19, CD3, CD8a, CD14, CD69, CD54, CD161, CD4 and CD80. Samples were analyzed on an Attune N×T flow cytometer (Thermo Fisher, Carlsbad, Calif.)
PBMCs were stimulated with 20 μM of CDN for 48 h. Cells were assessed by flow cytometry for upregulation of CD54 on monocytes. The fold increase in Mean Fluoresence Intensity was calculated relative to the levels on resting cells. The data is an average of two independent donors.

human STING = human STING (Homo sapiens (Human), UniProt Q86WV6, H232R); assay: human STING SPA binding assay
Protocol: The HIS tag is cleaved after purification and prior to biotinylation.
Test compounds (80 nL) were added with an acoustic dispenser (EDC Biosystems) in 100% DMSO for a final assay concentration of 1% DMSO. Plates were centrifuged for 1 min and incubated for 60 min at room temperature. Finally, (2 μL) polystyrene streptavidin SPA beads (PerkinElmer RPNQ0306) were added and plates were sealed and centrifuged for 1 min at room temperature. Plates were dark adapted for 2 h and read on a ViewLux (Perkin Elmer) for 12 min per plate.

[1] = test system: human STING pathway in THP1-ISG cells; assay: STING human cell reporter assay; format: cell-based; conditions: SEAP reporter, 24 h
Protocol: Agonism of the human STING pathway is assessed in THP1-ISG cells (Invivogen, cat #thp-isg) derived from human THP1 monocyte cell line by stable integration of an interferon regulatory factor (IRF)-inducible SEAP reporter construct. THP1-Blue ISG cells express a secreted embryonic alkaline phosphatase (SEAP) reporter gene under the control of an ISG54 minimal promoter in conjunction with five interferon (IFN)-stimulated response elements. As a result, THP1-Blue ISG cells allow the monitoring of IRF activation by determining the activity of SEAP. The levels of IRF-induced SEAP in the cell culture supernatant are readily assessed with alkaline phosphatase detection medium, a SEAP detection reagent. These cells are resistant to Zeocin. […] To run the assay, 60,000 cells were dispensed in 30 μL/well of a white, opaque bottom tissue culture treated 384-well plate.
Test compounds were added in a volume of 10 μL (1% DMSO final concentration). Compounds are initially prepared in 100% DMSO, spotted on an intermediate dilution plate and then diluted in media prior to transfer. The assay was incubated for 24 h at 37° C., 5% CO2 then plates were centrifuged at 1200 rpm (120×g) for 5 min. […]

human STING, sequence (Q86WV6 139-379 H232R): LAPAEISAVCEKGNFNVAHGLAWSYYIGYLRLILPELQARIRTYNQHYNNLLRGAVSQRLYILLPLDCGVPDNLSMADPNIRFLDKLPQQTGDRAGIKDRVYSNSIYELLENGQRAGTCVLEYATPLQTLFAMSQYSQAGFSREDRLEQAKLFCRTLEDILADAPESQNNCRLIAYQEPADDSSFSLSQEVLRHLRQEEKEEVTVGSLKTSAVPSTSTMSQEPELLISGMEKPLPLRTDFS

Structure (SMILES)	human IFN-β (ranking value) (THP1-Blue ISG cells)	further results
COC1C2COP(=O)(S)OC3C(COP(=O)(S)OC1C(n1cnc4c(=O)[nH]c(N)nc41)O2)OC(n1cnc2c(N)ncnc21)C3F (single isomer, unassigned) [Compound 6a]	2427	
COC1C2COP(=O)(S)OC3C(COP(=O)(S)OC1C(n1cnc4c(=O)[nH]c(N)nc41)O2)OC(n1cnc2c(N)ncnc21)C3F (single isomer, unassigned) [Compound 6b]	904	
COC1C2COP(=O)(S)OC3C(COP(=O)(S)OC1C(n1cnc4c(=O)[nH]c(N)nc41)O2)OC(n1cnc2c(N)ncnc21)C3F (single isomer, unassigned) [Compound 6c]	4266	
COC1C2COP(=O)(S)OC3C(COP(=O)(S)OC1C(n1cnc4c(=O)[nH]c(N)nc41)O2)OC(n1cnc2c(N)ncnc21)C3F (single isomer, unassigned) [Compound 6d]	3039	
Nc1nc2c(ncn2[C@@H]2O[C@@H]3COP(=O)(O)O[C@H]4[C@@H](O)[C@H](n5cnc6c(N)ncnc65)O[C@@H]4COP(=O)(O)O[C@@H]2[C@@H]3O)c(=O)[nH]1 [4-2′3′-cGAMP, (2′,3′)cyclic guanosine monophosphate-adenosine monophosphate]		MFI, fold increase of CD54 on monocytes (primary human PBMC): 4.5
CC1(O)C2OP(=O)(O)OCC3OC(n4cnc5c(=O)[nH]c(N)nc54)C(OP(=O)(O)OCC2OC1n1cnc2c(N)ncnc21)C3O (centres unmarked) [Compound 1]		IC50 (human STING): 54.5 µM; EC50 [1]: 1.81 µM
COC1C2COP(=O)(O)OC3C(COP(=O)(O)OC1C(n1cnc4c(=O)[nH]c(N)nc41)O2)OC(n1cnc2c(N)ncnc21)C3F (centres unmarked) [Compound 5]	1024	
